pIC50: −log10 of the molar value.
What was measured:
[1] = Metabolic stability assay (human microsomal Clint); assay type: in vitro ADME; conditions: 1 mg/mL microsomes, 1 mM NADPH, 37° C.; for Human liver microsomal CLint: 1 μM compound; for microsomal CLint at 1 μM: human, pooled human liver microsomes, pH 7.4, 1 μM compound
Method in brief: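 Compound (1 μM) incubated at 37 °C with pooled human liver microsomes (1 mg/mL) and 1 mM NADPH in 100 mM phosphate, pH 7.4. Samples quenched in acetonitrile at 0–30 min and analysed by LC-MS/MS for parent loss. CLint reported in μl/min/mg.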

[2] = test system: MDCKII-MDR1-BCRP cell monolayers; assay: MDCKII-MDR1-BCRP efflux assay; assay type: in vitro ADME; conditions: 5 μM compound, 120 min, HBSS pH 7.4
Method in brief: (§1)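 Bidirectional (A-B, B-A) transport of 5 μM compound across MDCKII-MDR1-BCRP monolayers in HBSS, 25 mM HEPES pH 7.4, ~37° C. for 120 min, triplicate; donor and receiver concentrations measured, monolayer integrity checked with Lucifer yellow. Papp and efflux ratio calculated.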

[3] = target: Full length human DNAPK protein (Homo sapiens, UniProt P78527); assay: DNA-PK enzymatic assay (TR-FRET); assay type: biochemical; conditions: 10 μM ATP, 1.6 μM peptide substrate
[4] = test system: Rat hepatocyte; assay: Metabolic stability assay (rat hepatocyte Clint); assay type: in vitro ADME; conditions: 1 μM compound, cryopreserved hepatocytes 1 million cells per mL
Method in brief: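 Compound at 1 μM incubated with cryopreserved rat hepatocytes, 1 million cells/mL, sampled 0–120 min with acetonitrile quench and LC-MS/MS quantitation. CLint (μL/min/E6) derived from elimination rate constant and half-life of parent disappearance, scaled by cell concentration.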

[5] = test system: MDR1, BCRP; assay: MDCKII-MDR1-BCRP efflux assay; assay type: in vitro ADME; conditions: dog, pH 7.4, 5 μM compound, HBSS pH 7.4, read-out: MDCK-Mdr1-BCRP efflux ratio
Method in brief: as §1

Row | Structure (SMILES) | Human liver microsomal CLint [1] [µL/min/mg] | MDCK-Mdr1-BCRP efflux ratio [2] | pIC50 [3] | Rat hepatocyte CLint (μl/min/10^−6 cells) [4] [μl/min/10^−6 cells] | microsomal CLint at 1 μM [1] [µL/min/mg] | efflux ratio at 120 min, 5 μM [5]
1 | Cc1cc2ncnn2cc1Nc1ncc2c(C)nn(CC3CCCO3)c2n1 (single isomer, unassigned) [Example 51, 3-methyl-N-(7-methyl-[1,2,4]triazolo[1,5-a]pyridin-6-yl)-1-((tetrahydrofuran-2-yl)methyl)-1H-pyrazolo[3,4-d]pyrimidin-6-amine] | 20.9 | 1.9 | 7.92 | <1 | – | –
2 | Cc1cc2ncnn2cc1Nc1ncc2c(C)nn(CC3CCOC3)c2n1 (single isomer, unassigned) [Example 53, 3-methyl-N-(7-methyl-[1,2,4]triazolo[1,5-a]pyridin-6-yl)-1-((tetrahydrofuran-3-yl)methyl)-1H-pyrazolo[3,4-d]pyrimidin-6-amine] | 15.2 | 2.4 | 8.14 | 5.0 | – | –
3 | Cc1cc2ncnn2cc1Nc1ncc2c(C)nn(C3CC(C)OC(C)C3)c2n1 (single isomer, unassigned) [Example 86-1, 1-(2,6-dimethyltetrahydro-2H-pyran-4-yl)-3-methyl-N-(7-methyl-[1,2,4]triazolo[1,5-a]pyridin-6-yl)-1H-pyrazolo[3,4-d]pyrimidin-6-amine] | >300 | 0.9 | 8.52 | 42.7 | – | –
4 | COC1CCC(n2nc(C)c3cnc(Nc4cn5ncnc5cc4C)nc32)C1 (single isomer, unassigned) [Example 109, 1-(3-methoxycyclopentyl)-3-methyl-N-(7-methyl-[1,2,4]triazolo[1,5-a]pyridin-6-yl)-1H-pyrazolo[3,4-d]pyrimidin-6-amine] | 87.2 | 2 | 8.40 | 11.9 | – | –
5 | Cc1cc2ncnn2cc1Nc1ncc2c(C)nn(C3CCOC(C)(C)C3)c2n1 (single isomer, unassigned) [Example 117, 1-(2,2-dimethyltetrahydro-2H-pyran-4-yl)-3-methyl-N-(7-methyl-[1,2,4]triazolo[1,5-a]pyridin-6-yl)-1H-pyrazolo[3,4-d]pyrimidin-6-amine] | 50.4 | 1.8 | 8.74 | 9.1 | – | –
6 | Cc1cc2ncnn2cc1Nc1ncc2c(C)nn(CCC#N)c2n1 [Example 72, 3-(3-methyl-6-((7-methyl-[1,2,4]triazolo[1,5-a]pyridin-6-yl)amino)-1H-pyrazolo[3,4-d]pyrimidin-1-yl)propanenitrile] | – | – | 8.74 | 1.0 | 5.9 | 7.5
7 | Cc1cc2nccn2cc1Nc1ncc2c(C)nn(CC(C)C#N)c2n1 (stereo not drawn) [Example 80, 2-methyl-3-(3-methyl-6-((7-methylimidazo[1,2-a]pyridin-6-yl)amino)-1H-pyrazolo[3,4-d]pyrimidin-1-yl)propanenitrile] | – | – | 8.68 | 9.3 | 23.5 | 19
8 | COc1cc(C)c(Nc2ncc3c(C)nn(C4CCOCC4)c3n2)cn1 [Example 89, N-(6-methoxy-4-methylpyridin-3-yl)-3-methyl-1-(tetrahydro-2H-pyran-4-yl)-1H-pyrazolo[3,4-d]pyrimidin-6-amine] | – | – | 8.21 | 9.6 | 10.1 | 0.8
9 | Cc1cc(-c2nn(C)c3cnc(Nc4cn5ncnc5cc4C)nc23)ccn1 [Example 102, 1-methyl-N-(7-methyl-[1,2,4]triazolo[1,5-a]pyridin-6-yl)-3-(2-methylpyridin-4-yl)-1H-pyrazolo[4,3-d]pyrimidin-5-amine] | – | – | 9.05 | 32.0 | 15 | 14

Results, then the compound that gave them:

Row | Human liver microsomal CLint [1] [µL/min/mg] | MDCK-Mdr1-BCRP efflux ratio [2] | pIC50 [3] | Rat hepatocyte CLint (μl/min/10^−6 cells) [4] [μl/min/10^−6 cells] | microsomal CLint at 1 μM [1] [µL/min/mg] | efflux ratio at 120 min, 5 μM [5] | Structure (SMILES)
10 | 17.7 | 1.2 | 7.80 | 4.5 | – | – | Cc1cc2ncnn2cc1Nc1ncc2c(C)nn(C3CCCOC3)c2n1 (single isomer, unassigned) [Example 30, 3-methyl-N-(7-methyl-[1,2,4]triazolo[1,5-a]pyridin-6-yl)-1-(tetrahydro-2H-pyran-3-yl)-1H-pyrazolo[3,4-d]pyrimidin-6-amine]
11 | 51.5 | 2.1 | 8.85 | 11.6 | – | – | Cc1cc2ncnn2cc1Nc1ncc2c(C)nn(C3CCOC(C)C3)c2n1 (single isomer, unassigned) [Example 36, 3-methyl-N-(7-methyl-[1,2,4]triazolo[1,5-a]pyridin-6-yl)-1-(2-methyltetrahydro-2H-pyran-4-yl)-1H-pyrazolo[3,4-d]pyrimidin-6-amine]
12 | 8.7 | 3.4 | 8.77 | <1 | – | – | Cc1cc2ncnn2cc1Nc1ncc2c(C)nn(C3CCOC3)c2n1 (single isomer, unassigned) [Example 49, 3-methyl-N-(7-methyl-[1,2,4]triazolo[1,5-a]pyridin-6-yl)-1-(tetrahydrofuran-3-yl)-1H-pyrazolo[3,4-d]pyrimidin-6-amine]
13 | 60.5 | 4 | 8.49 | 8.2 | – | – | Cc1cc2ncnn2cc1Nc1ncc2c(C)nn(C3CCOCC3C)c2n1 (single isomer, unassigned) [Example 113, 3-methyl-N-(7-methyl-[1,2,4]triazolo[1,5-a]pyridin-6-yl)-1-(3-methyltetrahydro-2H-pyran-4-yl)-1H-pyrazolo[3,4-d]pyrimidin-6-amine]
14 | 50.4 | 2 | 8.77 | 8.5 | – | – | Cc1cc2ncnn2cc1Nc1ncc2c(C)nn(C3CCOCC3C)c2n1 (single isomer, unassigned) [Example 114, 3-methyl-N-(7-methyl-[1,2,4]triazolo[1,5-a]pyridin-6-yl)-1-(3-methyltetrahydro-2H-pyran-4-yl)-1H-pyrazolo[3,4-d]pyrimidin-6-amine]
15 | 53.5 | 2 | 8.72 | 7.7 | – | – | Cc1cc2ncnn2cc1Nc1ncc2c(C)nn(C3CCOCC3C)c2n1 (single isomer, unassigned) [Example 115, 3-methyl-N-(7-methyl-[1,2,4]triazolo[1,5-a]pyridin-6-yl)-1-(3-methyltetrahydro-2H-pyran-4-yl)-1H-pyrazolo[3,4-d]pyrimidin-6-amine]

Reference: patent US12630565B2, “DNA-dependent protein kinase inhibitor” (DIZAL (JIANGSU) PHARMACEUTICAL CO., LTD., priority 2019, dated 2026)
